Results published in patent publication US10202360B2 (CELGENE QUANTICEL RESEARCH, INC., priority 2016, dated 2019).

Biological target: CREBBP (Homo sapiens (Human), UniProt Q92793)
Test: In vitro enzyme inhibition assay - CREBBP inhibition (AlphaScreen, biotinylated H4-tetraacetyl peptide)
Assay type: binding
Details: Table 28; AlphaScreen, H4-tetraacetyl peptide
Method in brief: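 Displacement of 20 nM biotinylated tetraacetyl-H4 peptide from 50 nM E. coli-expressed His-CREBBP, measured by AlphaScreen after bead equilibration for 2 h.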

Chain of CREBBP (Q92793 1081-1197): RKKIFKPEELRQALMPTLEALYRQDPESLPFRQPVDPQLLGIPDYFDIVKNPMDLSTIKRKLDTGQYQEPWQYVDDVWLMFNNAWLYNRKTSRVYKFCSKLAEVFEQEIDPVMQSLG

SMILES | IC50 [µM]
Cc1cc(-c2cc(NS(=O)(=O)C(C)C)nc(Oc3cccc4occc34)n2)cn(C)c1=O [Example 59, N-(2-(benzofuran-4-yloxy)-6-(1,5-dimethyl-6-oxo-1,6-dihydropyridin-3-yl)pyrimidin-4-yl)propane-2-sulfonamide] | < 0.5
CCCS(=O)(=O)Nc1cc(Oc2c(C)cc(Cl)cc2Cl)nc(-c2cc(C)c(=O)n(C)c2)n1 [Example 60, Propane-1-sulfonic acid [6-(2,4-dichloro-6-methyl-phenoxy)-2-(1,5-dimethyl-6-oxo-1,6-dihydro-pyridin-3-yl)-pyrimidin-4-yl]-amide] | < 0.5
Cc1cc(-c2cc(NS(C)(=O)=O)nc(Oc3ccc(F)cc3F)n2)cn(C)c1=O [Example 61, N-(2-(2,4-difluorophenoxy)-6-(1,5-dimethyl-6-oxo-1,6-dihydropyridin-3-yl)pyrimidin-4-yl)methanesulfonamide] | < 0.5
Cc1cc(-c2cc(NS(=O)(=O)C(C)C)nc(Oc3ccc(F)cc3F)n2)cn(C)c1=O [Example 62, N-(2-(2,4-difluorophenoxy)-6-(1,5-dimethyl-6-oxo-1,6-dihydropyridin-3-yl)pyrimidin-4-yl)propane-2-sulfonamide] | < 0.5
Cc1cc(-c2cc(NS(=O)(=O)C3CC3)nc(Oc3ccc(F)cc3F)n2)cn(C)c1=O [Example 63, N-(2-(2,4-difluorophenoxy)-6-(1,5-dimethyl-6-oxo-1,6-dihydropyridin-3-yl)pyrimidin-4-yl)cyclopropanesulfonamide] | < 0.5
CCCCS(=O)(=O)Nc1cc(-c2cc(C)c(=O)n(C)c2)nc(Oc2ccc(F)cc2F)n1 [Example 64, N-(2-(2,4-difluorophenoxy)-6-(1,5-dimethyl-6-oxo-1,6-dihydropyridin-3-yl)pyrimidin-4-yl)butane-1-sulfonamide] | < 0.5
Cc1cc(-c2cc(NS(=O)(=O)C(C)(C)C)nc(Oc3ccc(F)cc3F)n2)cn(C)c1=O [Example 65, N-(2-(2,4-difluorophenoxy)-6-(1,5-dimethyl-6-oxo-1,6-dihydropyridin-3-yl)pyrimidin-4-yl)-2-methylpropane-2-sulfonamide] | < 0.5
Cc1cc(F)ccc1Oc1nc(NS(=O)(=O)C(C)C)cc(-c2cc(C)c(=O)n(C)c2)n1 [Example 67, N-(6-(1,5-dimethyl-6-oxo-1,6-dihydropyridin-3-yl)-2-(4-fluoro-2-methylphenoxy)pyrimidin-4-yl)propane-2-sulfonamide] | < 0.5
COc1ccc(Oc2nc(NS(=O)(=O)C(C)C)cc(-c3cc(C)c(=O)n(C)c3)n2)cc1Cl [Example 68, N-(2-(3-chloro-4-methoxyphenoxy)-6-(1,5-dimethyl-6-oxo-1,6-dihydropyridin-3-yl)pyrimidin-4-yl)propane-2-sulfonamide] | < 0.5
Cc1cc(-c2cc(NS(=O)(=O)C(C)C)nc(Oc3ccccc3)n2)cn(C)c1=O [Example 69, N-(6-(1,5-dimethyl-6-oxo 1,6-dihydropyridin-3-yl)-2-phenoxypyrimidin-4-yl)propane-2-sulfonamide] | < 0.5
Cc1cc(-c2cc(NS(=O)(=O)C(C)C)nc(Oc3ccc(F)cc3)n2)cn(C)c1=O [Example 70, N-(6-(1,5-dimethyl-6-oxo-1,6-dihydropyridin-3-yl)-2-(4-fluorophenoxy)pyrimidin-4-yl)propane-2-sulfonamide] | < 0.5
Cc1cccc(C)c1Oc1nc(NS(=O)(=O)C(C)C)cc(-c2cc(C)c(=O)n(C)c2)n1 [Example 71, N-(6-(1,5-dimethyl-6-oxo-1,6-dihydropyridin-3-yl)-2-(2,6-dimethylphenoxy)pyrimidin-4-yl)propane-2-sulfonamide] | < 0.5
Cc1cc(-c2cc(N(C)S(=O)(=O)C(C)C)nc(Oc3ccc(F)cc3F)n2)cn(C)c1=O [Example 73, N-(2-(2,4-difluorophenoxy)-6-(1,5-dimethyl-6-oxo-1,6-dihydropyridin-3-yl)pyrimidin-4-yl)-N-methylpropane-2-sulfonamide] | < 0.5

The remaining lines, values ahead:

IC50 [µM] | SMILES
< 0.5 | CCCCS(=O)(=O)Nc1cc(-c2cc(C)c(=O)n(C)c2)nc(Oc2cnn(C)c2)n1 [Example 74, N-(6-(1,5-dimethyl-6-oxo-1,6-dihydropyridin-3-yl)-2-((1-methyl-1H-pyrazol-4-yl)oxy)pyrimidin-4-yl)butane-1-sulfonamide]
< 0.5 | CCCCS(=O)(=O)Nc1cc(-c2cc(C)c(=O)n(C)c2)nc(Oc2cccc3c2ccn3C)n1 [Example 75, N-(6-(1,5-dimethyl-6-oxo-1,6-dihydropyridin-3-yl)-2-((1-methyl-1H-indol-4-yl)oxy)pyrimidin-4-yl)butane-1-sulfonamide]
< 0.5 | Cc1cc(-c2cc(NS(=O)(=O)C(C)C)nc(Oc3cccc4c3ccn4C)n2)cn(C)c1=O [Example 76, N-(6-(1,5-dimethyl-6-oxo-1,6-dihydropyridin-3-yl)-2-((1-methyl-1H-indol-4-yl)oxy)pyrimidin-4-yl)propane-2-sulfonamide]
0.5 to 5 | Cc1cc(-c2cc(NC(=O)CC(C)C)nc(Oc3ccc(F)cc3F)n2)cn(C)c1=O [Example 77, N-(2-(2,4-difluorophenoxy)-6-(1,5-dimethyl-6-oxo-1,6-dihydropyridin-3-yl)pyrimidin-4-yl)-3-methylbutanamide]
< 0.5 | COCCS(=O)(=O)Nc1cc(-c2cc(C)c(=O)n(C)c2)nc(Oc2c(C)cccc2C)n1 [Example 78, N-(6-(1,5-dimethyl-6-oxo-1,6-dihydropyridin-3-yl)-2-(2,6-dimethylphenoxy)pyrimidin-4-yl)-2-methoxyethane-1-sulfonamide]
< 0.5 | CCCCC(=O)Nc1cc(-c2cc(C)c(=O)n(C)c2)nc(Oc2ccc(F)cc2F)n1 [Example 79, N-(2-(2,4-difluorophenoxy)-6-(1,5-dimethyl-6-oxo-1,6-dihydropyridin-3-yl)pyrimidin-4-yl)pentanamide]
< 0.5 | CCCS(=O)(=O)Nc1cc(-c2cc(C)c(=O)n(C)c2)nc(Oc2c(C)cccc2C)n1 [Example 80, N-(6-(1,5-dimethyl-6-oxo-1,6-dihydropyridin-3-yl)-2-(2,6-dimethylphenoxy)pyrimidin-4-yl)propane-1-sulfonamide]
< 0.5 | Cc1cccc(C)c1Oc1nc(NS(=O)(=O)CCCF)cc(-c2cc(C)c(=O)n(C)c2)n1 [Example 81, N-(6-(1,5-dimethyl-6-oxo-1,6-dihydropyridin-3-yl)-2-(2,6-dimethylphenoxy)pyrimidin-4-yl)-3-fluoropropane-1-sulfonamide]
< 0.5 | Cc1cccc(C)c1Oc1nc(NS(=O)(=O)CC2CC2)cc(-c2cc(C)c(=O)n(C)c2)n1 [Example 82, 1-cyclopropyl-N-(6-(1,5-dimethyl-6-oxo-1,6-dihydropyridin-3-yl)-2-(2,6-dimethylphenoxy)pyrimidin-4-yl)methanesulfonamide]
< 0.5 | Cc1cccc(C)c1Oc1nc(NS(=O)(=O)CC(C)C)cc(-c2cc(C)c(=O)n(C)c2)n1 [Example 83, N-(6-(1,5-dimethyl-6-oxo-1,6-dihydropyridin-3-yl)-2-(2,6-dimethylphenoxy)pyrimidin-4-yl)-2-methylpropane-1-sulfonamide]
< 0.5 | CCC(C)S(=O)(=O)Nc1cc(-c2cc(C)c(=O)n(C)c2)nc(Oc2c(C)cccc2C)n1 (stereo not drawn) [Example 84, N-(6-(1,5-dimethyl-6-oxo-1,6-dihydropyridin-3-yl)-2-(2,6-dimethylphenoxy)pyrimidin-4-yl)butane-2-sulfonamide]
